The record followed here is patent US20040067565A1, “Selective functionalization of hydrocarbons with isolated oxygenases and mediator based regeneration” (priority 2002, published 2004).

The target of test [1] is T1, monooxygenase component of styrene monooxygenase (StyA) (Pseudomonas sp, UniProt O50214). Briefly: [Cp*Rh(bpy)(H2O)]2+ driven, StyA-catalyzed epoxidation / sulfoxidation. It is filed as biochemical. The note with it: substrate 2 mM, reaction time 15 min, 37 °C, 0.2 mM [Cp*Rh(bpy)(H2O)]2+, 1.47 μM StyA; for Epoxides concentration: 20 μM FAD, Positive = no standard substances available yet. Here is the method: In a typical experimental setup 1 ml total volume was placed in an Eppendorf cup in a Thermomixer. The temperature was set to 37° C. and the reaction mixture was shaken thoroughly to ensure O2 intake.
Product formation was followed by reversed phase HPLC. The HPLC system (Merck) consisted of a D-7000 controller, L-7200 autosampler, L-7400 UV detector, L-7100 liquid chromatography pump and was fitted with a CC250/4 Nucleosil 100-5 C18 HD column. Samples were eluted under isocratic conditions using 60% acetonitrile and 40% water at a flow rate of 1 ml×min^−1. The elution pattern was monitored at 210 nm.
0.2 mM [Cp*Rh(bpy)(H2O)]^2+, 0.05 mM FAD, 0.005 mM FMN, 2 mM styrene, 280 U catalase, and 1.16 μM StyA in 50 mM potassium phosphate buffer with 150 mM sodium formate were incubated at 37° C. and agitation at 1500 rpm. At intervals, reactions were stopped by addition of one equivalent volume of cold acetonitrile. After centrifugation (15 min at 4° C. and 23000×g the upper phase was analyzed by reverse phase HPLC. Concentrations were corrected according to the phase ratio after centrifugation. Results from this experiment are given in FIG. 10 and Table 3.
0.2 mM [Cp*Rh(bpy)(H2O)]^2+, 0.02 mM FAD, 2 mM substrate, 200 U catalase, and 1.47 μM StyA in 50 mM potassium phosphate buffer with 150 mM sodium formate were incubated at 37° C. and agitation at 1500 rpm.
Styrene oxide was analyzed using a CC200/4 Nucleodex α-PM (Machery-Nagel). As eluent 60% methanol and 40% 6.2 mM TEAA in water was used at a flow rate of 0.7 ml×min^−1. 1,2-Dihydronaphthalene oxide, trans-β-Methylstyrene oxide, indene oxide, and methyl phenyl sulfoxide were extracted from the reaction buffer with one aliquot hexane und analyzed unsing normal phase HPLC with a CHIRACEL OB—H column and hexane:isopropanol 95:5 (9:1 for methyl phenyl sulfoxide) at a flow rate of 0.5 ml*min^−1 as mobile phase. As reference either authentical samples of racemic epoxides were used. (Table 4). […]

For test [2], the target named is T2, Alkane Hydoxylase from P. Oleovorans (AlkB) (Ectopseudomonas oleovorans, UniProt P12691).
T2 construct: made in house; host or cells: E. coli
Kind of test: Direct reduction of alkane hydroxylase AlkB by [Cp*Rh(bpy)(H2O)]2+, hydroxylation of 3-ethyl toluene. It is filed as biochemical. Particulars: 200 μM [Cp*Rh(bpy)(H2O)]2+, 2 mM 3-ethyl toluene, AlkB crude extract, 30 °C, 20 minutes; average of 4 experiments. Here is the method:
In a typical experiment, 1 ml total volume of 200 μM [Cp*Rh(bpy)(H2O)]^2+ are incubated with 2 mM 3-ethyl toluene and 100 μl of a cell crude extract of recombinant E. coli overexpressing AlkB in a final volume of 1 ml 100 mM potassium phosphate buffer (pH 7.4) supplemented with 150 mM sodium formate and 1 mg/ml bovine serum albumin at 30° C. and vigorous shaking. After 20 minutes the reaction is stopped by addition of […] perchloric acid (10%). After centrifugation the supernatant is extracted with one aliquot of hexane. The organic phase is analyzed by normal phase HPLC (Nucleosil 250/3 100-5 C, mobile phase: hexane/isopropanol 95:5, flow rate=0.5 ml min^−1).

The next test has as its target CytC (Equus caballus, UniProt P00004). Here is the method:
On the other hand CytC is inactivated by hydrogen peroxide, which can be followed by the disappearing Soret-peak (heme absorbance at k=408 nm).
In a typical experiment […] CytC is incubated at 30° C. in the presence of 1 mM hydrogen peroxide. At intervals of 2 min the UV-spectrum (between 300 and 650 nm) is recorded (FIG. 18).
In identical experiments, the absorbance at 408 nm was followed over time.

Test [3] concerns the target T1, monooxygenase component of styrene monooxygenase (StyA). Kind of test: [Cp*Rh(bpy)(H2O)]2+ driven, StyA-catalyzed epoxidation / sulfoxidation. It is filed as biochemical. The note with it: substrate 4 mM, reaction time 15 min, 37 °C, 0.2 mM [Cp*Rh(bpy)(H2O)]2+, 1.47 μM StyA.

Structures are written as SMILES. Where two headings read alike, the source gives them in different places. Marks after values point to notes of the source that are not given here.

CytC, sequence (P00004 whole entry): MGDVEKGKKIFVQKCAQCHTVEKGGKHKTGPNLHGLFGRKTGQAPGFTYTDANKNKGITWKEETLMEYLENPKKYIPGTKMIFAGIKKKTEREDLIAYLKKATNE
T1 sequence (O50214 whole entry): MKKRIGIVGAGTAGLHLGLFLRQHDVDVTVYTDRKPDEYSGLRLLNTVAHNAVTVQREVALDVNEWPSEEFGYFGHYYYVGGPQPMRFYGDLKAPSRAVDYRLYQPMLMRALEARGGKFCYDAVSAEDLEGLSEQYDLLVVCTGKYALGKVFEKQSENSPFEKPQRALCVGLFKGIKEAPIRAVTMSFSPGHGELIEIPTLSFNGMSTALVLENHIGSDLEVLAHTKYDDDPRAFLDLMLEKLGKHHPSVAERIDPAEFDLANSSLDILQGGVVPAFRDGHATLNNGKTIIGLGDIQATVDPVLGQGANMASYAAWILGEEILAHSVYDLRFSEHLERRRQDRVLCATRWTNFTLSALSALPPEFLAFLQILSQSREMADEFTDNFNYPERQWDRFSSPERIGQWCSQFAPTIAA
T2 sequence (P12691 whole entry): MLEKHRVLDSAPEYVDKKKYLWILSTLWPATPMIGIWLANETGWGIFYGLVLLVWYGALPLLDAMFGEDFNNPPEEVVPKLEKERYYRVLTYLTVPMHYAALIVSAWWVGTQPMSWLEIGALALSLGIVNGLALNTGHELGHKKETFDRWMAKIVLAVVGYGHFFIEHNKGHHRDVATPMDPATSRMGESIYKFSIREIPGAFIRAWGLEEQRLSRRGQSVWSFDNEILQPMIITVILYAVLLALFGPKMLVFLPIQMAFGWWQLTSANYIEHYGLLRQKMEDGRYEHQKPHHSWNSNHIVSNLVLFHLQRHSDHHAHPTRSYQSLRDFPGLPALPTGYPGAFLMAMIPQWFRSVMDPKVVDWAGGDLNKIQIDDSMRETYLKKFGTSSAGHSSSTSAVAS

As for `C1=Cc2ccccc2CC1` [1,2-Dihydronaphthalene], in test [1], the “ee-value of the epoxides” value was 98.9% and the Epoxides concentration was 0.23 mM.

In test [1], `C=Cc1cccc(Cl)c1` [3-Chloro-styrene] registered an Epoxides concentration of 0.37 mM.

As for `Cc1cccc(CCO)c1` [3-methylphenethylalcohol], in test [2], the 3-methylphenethylalcohol produced entry was “about 0.015 mM”.

Consider `C=Cc1ccc(Br)cc1` [4-Bromo styrene], for which the Epoxides concentration entry in test [1] was “Positive^[c]”.

Consider `C=Cc1ccc(Cl)cc1` [4-Chloro styrene], for which, in test [1], the Epoxides concentration entry is “Positive^[c]”.

`C=Cc1ccc(F)cc1` [4-Fluoro styrene]: the Epoxides concentration entry in test [1] is “Positive^[c]”.

Take `C=Cc1ccc(OC)cc1` [4-Methoxy styrene]: the Epoxides concentration result in test [1] was “Positive^[c]”.

In test [1], `C=Cc1ccc(C)cc1` [4-Methyl-styrene] yielded an Epoxides concentration of 0.29 mM.

`OO` [H2O2, hydrogen peroxide]: the “CytC enzymatic activity after preincubation (sulfoxidation of thioanisol)” value at CytC (CytC 15 μM, 1 mM hydrogen peroxide, 10 minutes) is reported as “almost complete loss of enzymatic activity”. The “dE (408 nm)/dt” value on CytC ([CytC] 5 μM, [H2O2] 5 mM) was -0.0116 min⁻¹; on CytC ([CytC] 5 μM, [H2O2] 10 mM) it was -0.0231 min⁻¹; at CytC ([CytC] 5 μM, [H2O2] 20 mM), -0.0399 min⁻¹; on CytC ([CytC] 7.5 μM, [H2O2] 10 mM), -0.0281 min⁻¹; on CytC ([CytC] 10 μM, [H2O2] 5 mM) it was -0.0234 min⁻¹; at CytC ([CytC] 10 μM, [H2O2] 7.5 mM), -0.0330 min⁻¹. The “dE (408 nm)/dt” value at CytC ([CytC] 10 μM, [H2O2] 10 mM) was -0.0438 min⁻¹; at CytC ([CytC] 10 μM, [H2O2] 15 mM), -0.0637 min⁻¹; on CytC ([CytC] 10 μM, [H2O2] 20 mM), -0.0821 min⁻¹.

As for `C1=Cc2ccccc2C1` [Indene], in test [1], the “ee-value of the epoxides” value is reported as 97.9% and the Epoxides concentration came out at 0.42 mM.

Turning to `CCSc1ccccc1` [Phenyl ethyl sulfide], in test [1], the Epoxides concentration entry was “Positive^[c]”.

The compound `C=Cc1ccccc1` [Styrene] returned an Epoxides concentration in test [3] (20 μM FAD) of 0.33 mM. The “ee-value of the epoxides” value in test [3] ((S)) is <98 (S)^[a] %.

For the compound `CSc1ccccc1` [Thioanisole], in test [1], the “ee-value of the epoxides” value was 23.3% and the Epoxides concentration is 0.33 (Methyl mM.

For the compound `C/C=C/c1ccccc1` [Trans-β-Methylstyrene], in test [1], the “ee-value of the epoxides” value came to 97.6% and the Epoxides concentration was 0.28 mM.
